Values joined by “and” are separate entries in the source; they are usually repeats but may differ in a detail not shown here. Equal entries are not always repeated. “Also recorded” adds a separate entry of the source.
Tests used:
P. vivax = system: P. vivax; set-up: method as in PMID 25075833; conditions: 30 mg per day for 3 days, P. vivax malaria patients; cited from earlier work
clinical = conditions: human, in vivo, 10 mg
Description: Blood samples were collected at the following time points after dosing to determine the cipargamin plasma concentration: 1, 2, 3, 4, 8, 12, 16, 24, 36, 48, 72, 96, and 120 h. Samples were analyzed by liquid chromatography-tandem mass spectrometry as previously described ([8]). Noncompartmental PK analysis was performed using WinNonlin Pro version 6.4.

[1] = system: P. falciparum gametocytes; experiment: Direct membrane feeding assay (DMFA), transmission to Anopheles stephensi mosquitoes; format: in vivo, Plasmodium falciparum; conditions: blood collected 20 days after cipargamin dosing
Description: The transmission of parasites from subjects to female Anopheles stephensi mosquitoes was measured using a direct membrane feeding assay (DMFA) as previously described ([23]). Briefly, ∼100 mosquitoes (3 to 7 days old) were allowed to feed on a water-jacketed membrane feeder filled with venous blood collected 20 days after cipargamin dosing into lithium heparin anticoagulant tubes. Seven to 9 days after blood feeding, mosquitoes were dissected to detect oocysts in midgut preparations using qPCR targeting the gene encoding 18S rRNA.

[2] = Safety assessment (adverse events, clinical laboratory, ECG); format: in vivo, human
Description: Safety assessments were performed throughout the study from screening and included adverse event reporting, physical examination, vital signs, clinical laboratory evaluation (hematology, biochemistry, and urinalysis), electrocardiography (ECG), and malaria clinical score recording. The malaria clinical score served as a clinical indication of the severity of the induced malaria infection; 14 signs and symptoms commonly associated with malaria were graded using a 3-point scale (0 = absent, 1 = mild, 2 = moderate, and 3 = severe), and the values were summed in order to generate an overall score (with a maximum possible score of 42). The severity of AEs was graded in accordance with the Common Terminology Criteria for Adverse Events, version 4.03 (https://evs.nci.nih.gov/ftp1/CTCAE/CTCAE_4.03/CTCAE_4.03_2010-06-14_QuickReference_5x7.pdf).

[3] = system: P. falciparum female gametocytes; experiment: Gametocytemia by pfs25 qRT-PCR; format: in vivo, Plasmodium falciparum
Description: A single oral dose of 960 mg piperaquine (PCI Pharma Services, United Kingdom) was administered to subjects in response to parasite regrowth. The purpose of piperaquine treatment was to clear asexual parasites without clearing any gametocytes that may be present. This would allow the gametocytocidal activity of a second dose of cipargamin to be investigated, as well as the transmission of gametocytes to mosquitoes. Gametocytemia was monitored using quantitative reverse transcriptase PCR (qRT-PCR) targeting pfs25 mRNA, a transcript preferentially expressed in mature female gametocytes ([26]). Transcripts per milliliter of blood were converted to female gametocytes per milliliter of blood using a standard curve ([29]). All participants were to receive compulsory rescue treatment with artemether-lumefantrine ([…]; Novartis Pharmaceuticals Pty. Ltd., Macquarie Park, Australia), as well as a single 45-mg dose of primaquine ([…] Group, Sydney, Australia) to clear gametocytes, 21 days after cipargamin dosing or earlier if a second round of parasite regrowth occurred following piperaquine treatment. To monitor total parasitemia, blood samples were collected for 18S rRNA qPCR before inoculation, on day 3, twice daily on days 4 to 6, pretreatment on day 7, and 4, 8, 12, 16, 24, 30, and 36 h posttreatment, twice daily from day 9 to day 11, and every 1 to 3 days until day 35. Blood samples for gametocytemia measurements were collected on day 11, every 1 to 3 days between day 15 and day 29, and on day 35. […] Analyses were performed in R version 3.3.0. The PRR and parasite clearance half-life were estimated using the slope of the optimal fit for the log-linear relationship of the parasitemia decay as described previously ([27]).

In the case of `C[C@H]1Cc2c([nH]c3cc(Cl)c(F)cc23)[C@@]2(N1)C(=O)Nc1ccc(Cl)cc12` [cipargamin], the parasite clearance half-life (P. vivax) is listed as 0.95 h, the “drug exposure (AUC0–∞) in IBSM subjects, fold lower than in patients with naturally acquired malaria” value (clinical) is listed as “around 3 fold” and the AUC(0-inf) (clinical; po) is listed as 1950 ± 753 ng·h/mL. The “CL/F, mean ± SD (% CV)” value (clinical; po) was 5.72 ± 1.93 (33.7) liters/h, the Cmax (clinical; po) was 101 ± 18.3 ng/mL and the Tmax (clinical; po) was 2 h. It also gave a Vd/F (clinical; po) of 209 ± 54.5 L, an AUC(0-t) (clinical; po, AUC0–24 h, mean ± SD (% CV)) of 1010 ± 242 ng·h/mL and an AUC(0-t) (clinical; po, AUC0–last, mean ± SD (% CV)) of 1850 ± 690 ng·h/mL. The half-life (clinical; po, t1/2 (elimination half-life), mean ± SD (% CV)) was ~26 h, the “transmission to mosquitoes (oocysts in midgut by qPCR)” value [1] was “did not transmit to mosquitoes; also recorded: could not be detected; also recorded: not observed” and the Abdominal discomfort ([2]; 10 mg, N=8) was 4 (50.0) n (%). For the same molecule, the Alanine aminotransferase increased ([2]; 10 mg, N=8) was 2 (25.0) n (%), the Arthralgia ([2]; 10 mg, N=8) was 2 (25.0) n (%) and the Aspartate aminotransferase increased ([2]; 10 mg, N=8) was 1 (12.5) n (%). For the same molecule, the “Cardiac disorders (system organ class)” value ([2]; 10 mg, N=8) was 1 (12.5) n (%), the Chills ([2]; 10 mg, N=8) was 3 (37.5) n (%) and the Decreased appetite ([2]; 10 mg, N=8) was 3 (37.5) n (%). The Diarrhoea ([2]; 10 mg, N=8) was 2 (25.0) n (%), the Drug-induced liver injury ([2]; 10 mg, N=8) was 1 (12.5) n (%) and the “Eye disorders (system organ class)” value ([2]; 10 mg, N=8) was 1 (12.5) n (%). The Gamma-glutamyltransferase increased ([2]; 10 mg, N=8) was 2 (25.0) n (%), the “Gastrointestinal disorders (system organ class)” value ([2]; 10 mg, N=8) was 5 (62.5) n (%) and the “General disorders and administration site conditions (system organ class)” value ([2]; 10 mg, N=8) was 6 (75.0) n (%). For the same molecule, the Haemoptysis ([2]; 10 mg, N=8) was 1 (12.5) n (%), the Head discomfort ([2]; 10 mg, N=8) was 1 (12.5) n (%) and the Headache ([2]; 10 mg, N=8) was 5 (62.5) n (%) and 5 n (%). For the same molecule, the “Hepatobiliary disorders (system organ class)” value ([2]; 10 mg, N=8) was 1 (12.5) n (%), the Hyperhidrosis ([2]; 10 mg, N=8) was 3 (37.5) n (%) and the “Investigations (system organ class)” value ([2]; 10 mg, N=8) was 3 (37.5) n (%). The Lethargy ([2]; 10 mg, N=8) was 4 (50.0) n (%), the “Liver function test abnormal” value ([2]; 10 mg, N=8) was 1 (12.5) n (%) and the Liver tenderness ([2]; 10 mg, N=8) was 1 (12.5) n (%). For the same molecule, the Malaise ([2]; 10 mg, N=8) was 4 (50.0) n (%), the “Metabolism and nutrition disorders (system organ class)” value ([2]; 10 mg, N=8) was 3 (37.5) n (%) and the “Musculoskeletal and connective tissue disorders (system organ class)” value ([2]; 10 mg, N=8) was 5 (62.5) n (%). For the same molecule, the Myalgia ([2]; 10 mg, N=8) was 5 (62.5) n (%) and 5 n (%), the Nausea ([2]; 10 mg, N=8) was 1 (12.5) n (%) and the Neck pain ([2]; 10 mg, N=8) was 1 (12.5) n (%). The “Nervous system disorders (system organ class)” value ([2]; 10 mg, N=8) was 6 (75.0) n (%), the Non-cardiac chest pain ([2]; 10 mg, N=8) was 1 (12.5) n (%) and the Photophobia ([2]; 10 mg, N=8) was 1 (12.5) n (%). For the same molecule, the Pyrexia ([2]; 10 mg, N=8) was 6 (75.0) n (%) and 6 n (%), the Rales ([2]; 10 mg, N=8) was 1 (12.5) n (%) and the Rash ([2]; 10 mg, N=8) was 1 (12.5) n (%). For the same molecule, the “Respiratory, thoracic and mediastinal disorders (system organ class)” value ([2]; 10 mg, N=8) was 3 (37.5) n (%), the Rhinorrhoea ([2]; 10 mg, N=8) was 1 (12.5) n (%) and the “Skin and subcutaneous tissue disorders (system organ class)” value ([2]; 10 mg, N=8) was 4 (50.0) n (%). The “Subjects with at least one adverse event” value ([2]; 10 mg, N=8) was 8 (100) n (%), the Tachycardia ([2]; 10 mg, N=8) was 1 (12.5) n (%) and the Urticaria ([2]; 10 mg, N=8) was 1 (12.5) n (%). The “AEs leading to discontinuation: No. (%) of subjects” value ([2]; 10 mg, 8 subjects) was 0 (0), the “AEs leading to discontinuation: No. of AEs” value ([2]; 10 mg, 8 subjects) was 0 and the “AEs mild in severity, of all AEs” value ([2]; 10 mg, 8 subjects) was 68/89. The “Any AEs, cipargamin related: No. (%) of subjects” value ([2]; 10 mg, 8 subjects) was 4 (50.0), the “Any AEs, cipargamin related: No. of AEs” value ([2]; 10 mg, 8 subjects) was 10 and the “Any AEs: No. (%) of subjects with at least 1 AE” value ([2]; 10 mg, 8 subjects) was 8 (100). For the same molecule, the “Any AEs: No. of AEs” value ([2]; 10 mg, 8 subjects) was 89, the “Moderate AEs (grade 2), cipargamin related: No. (%) of subjects” value ([2]; 10 mg, 8 subjects) was 2 (25.0) and the “Moderate AEs (grade 2), cipargamin related: No. of AEs” value ([2]; 10 mg, 8 subjects) was 2. The “Moderate AEs (grade 2): No. (%) of subjects” value ([2]; 10 mg, 8 subjects) was 7 (87.5), the “Moderate AEs (grade 2): No. of AEs” value ([2]; 10 mg, 8 subjects) was 18 and the “SAEs: No. (%) of subjects” value ([2]; 10 mg, 8 subjects) was 3 (37.5). For the same molecule, the “SAEs: No. of AEs” value ([2]; 10 mg, 8 subjects) was 3, the “Severe AEs (grade 3), cipargamin related: No. (%) of subjects” value ([2]; 10 mg, 8 subjects) was 2 (25.0) and the “Severe AEs (grade 3), cipargamin related: No. of AEs” value ([2]; 10 mg, 8 subjects) was 2. The “Severe AEs (grade 3): No. (%) of subjects” value ([2]; 10 mg, 8 subjects) was 2 (25.0), the “Severe AEs (grade 3): No. of AEs” value ([2]; 10 mg, 8 subjects) was 3 and the “hematology, urinalysis, or electrocardiogram (ECG) parameters” value ([2]; 10 mg, 8 subjects) was “no clinically significant abnormalities”. The “maximum ALT, times ULN” value ([2]; subject 1) was 5.2 × ULN, the “maximum AST” value ([2]; subject 1) was 88 U/liter and the “maximum AST, times ULN” value ([2]; subject 1) was 2.2 × ULN. For the same molecule, the “maximum ALT” value ([2]; subject 1, onset 8 days after dosing) was 208 U/liter, the ALT ([2]; subject 3, 8 days after dosing) was 187 U/liter and the “ALT, times ULN” value ([2]; subject 3, 8 days after dosing) was 4.6 × ULN. The AST ([2]; subject 3, 8 days after dosing) was 106 U/liter, the “AST, times ULN” value ([2]; subject 3, 8 days after dosing) was 2.6 × ULN and the GGT ([2]; subject 3, 8 days after dosing) was 215 U/liter. The “GGT, times ULN” value ([2]; subject 3, 8 days after dosing) was 4.3 × ULN, the bilirubin ([2]; subject 3, 8 days after dosing) was 74 µmol/L and the “bilirubin, times ULN” value ([2]; subject 3, 8 days after dosing) was 3.7 × ULN. The conjugated bilirubin ([2]; subject 3, 8 days after dosing) was 22 µmol/L, the “conjugated bilirubin, times ULN” value ([2]; subject 3, 8 days after dosing) was 3.1 × ULN and the “peak ALT, times ULN” value ([2]; subject 8) was 24.1 × ULN. For the same molecule, the “peak AST” value ([2]; subject 8) was 443 U/liter, the “peak AST, times ULN” value ([2]; subject 8) was 11 × ULN and the “peak GGT” value ([2]; subject 8) was 159 U/liter. The “peak GGT, times ULN” value ([2]; subject 8) was 3.1 × ULN, the “peak ALT” value ([2]; subject 8, onset 11 days after dosing) was 964 U/liter and the “gametocyte development after treatment” value ([3]; 10 mg cipargamin, followed by piperaquine) was “Low gametocyte densities were detected in all subjects; also recorded: detected in all 8 subjects; also recorded: not sufficient to prevent gametocyte development”. For the same molecule, the “gametocytemia at time of DMFA, geometric mean” value ([3]; 20 days after cipargamin dosing) was 439 gametocytes/ml, the “peak gametocytemia, geometric mean” value ([3]; after 10 mg cipargamin then 960 mg piperaquine, 8 subjects) was 976 female gametocytes/ml and the “time of peak gametocytemia after cipargamin dosing” value ([3]; all subjects, 24 days postinoculation) was “approximately 17 days”.

Source: publication PMC7849011, “Defining the Antimalarial Activity of Cipargamin in Healthy Volunteers Experimentally Infected with Blood-Stage Plasmodium falciparum” (Antimicrobial Agents and Chemotherapy, 2021)
